Columns and labels:
[1] = Cytotoxicity against C57BL/6 mouse BV-2 cells assessed as survival rate at 30 uM incubated for 24 hrs by MTT assay relative to control; format: toxicity, cell-based; settings: read-out: Survival
BV-2 = assay: Anti-neuroinflammatory activity against LPS-stimulated C57BL/6 mouse BV-2 cells assessed as inhibition of NO release at 30 uM preincubated with compound for 4 hrs followed by LPS addition and measured after 24 hrs by Griess reagent based assay relative to control; format: functional; settings: C57BL/6, BV-2, time 28 hrs

| SMILES | viability at 24 h, 30 µM [1] | inhibition at 30 µM (BV-2) |
| --- | --- | --- |
| CCN1C[C@]2(OC(=O)c3ccccc3NC(=O)c3ccccc3OC)CC[C@H](OC)[C@]34C1[C@@H](C[C@H]23)[C@@]1(O)C[C@H](OC)[C@H]2C[C@@H]4[C@]1(O)[C@H]2OC | 97% | 34.2% |
| CCN1C[C@]2(OC(=O)c3ccccc3NC(=O)c3ccc(OC)c(OC)c3)CC[C@H](OC)[C@]34C1[C@@H](C[C@H]23)[C@@]1(O)C[C@H](OC)[C@H]2C[C@@H]4[C@]1(O)[C@H]2OC | 102% | 14.3% |
| CCN1C[C@]2(OC(=O)c3ccccc3NC(=O)c3ccc(I)cc3)CC[C@H](OC)[C@]34C1[C@@H](C[C@H]23)[C@@]1(O)C[C@H](OC)[C@H]2C[C@@H]4[C@]1(O)[C@H]2OC | 100% | 36.1% |
| C=C(C)C(=O)Nc1ccccc1C(=O)O[C@@]12CC[C@H](OC)[C@]34C([C@@H](C[C@H]13)[C@@]1(O)C[C@H](OC)[C@H]3C[C@@H]4[C@]1(O)[C@H]3OC)N(CC)C2 | 94.2% | 12.9% |
| CCN1C[C@]2(OC(=O)c3ccccc3NC(=O)c3ccccc3Br)CC[C@H](OC)[C@]34C1[C@@H](C[C@H]23)[C@@]1(O)C[C@H](OC)[C@H]2C[C@@H]4[C@]1(O)[C@H]2OC | 106% | 32.5% |
| CCN1C[C@]2(COC(=O)c3ccccc3NS(=O)(=O)c3cccc(F)c3)CC[C@H](OC)[C@]34C1[C@@H](C[C@H]23)[C@@]1(O)C[C@H](OC)[C@H]2C[C@@H]4[C@]1(O)[C@H]2O | 106% | 17.9% |
| CCN1C[C@]2(OC(=O)c3ccccc3NC(=O)c3cccc(F)c3)CC[C@H](OC)[C@]34C1[C@@H](C[C@H]23)[C@@]1(O)C[C@H](OC)[C@H]2C[C@@H]4[C@]1(O)[C@H]2OC | 107% | 11% |
| CCN1C[C@]2(OC(=O)c3ccccc3NC(=O)c3ccc(Br)cc3)CC[C@H](OC)[C@]34C1[C@@H](C[C@H]23)[C@@]1(O)C[C@H](OC)[C@H]2C[C@@H]4[C@]1(O)[C@H]2OC | 102% | 21.3% |
| CCN1C[C@]2(OC(=O)c3ccccc3NC(=O)S(=O)(=O)CC)CC[C@H](OC)[C@]34C1[C@@H](C[C@H]23)[C@@]1(O)C[C@H](OC)[C@H]2C[C@@H]4[C@]1(O)[C@H]2OC | 106% | 12.5% |
| COC(=O)c1ccccc1NS(=O)(=O)c1ccc(Br)s1 | 99.1% | 43.8% |
| CCN1C[C@]2(OC(=O)c3ccccc3NC(=O)S(=O)(=O)CCCCl)CC[C@H](OC)[C@]34C1[C@@H](C[C@H]23)[C@@]1(O)C[C@H](OC)[C@H]2C[C@@H]4[C@]1(O)[C@H]2OC | 104% | 23.5% |
| O=c1c(O)c(-c2ccc(O)c(O)c2)oc2cc(O)cc(O)c12 [QUERCETIN] | 99.5% | 76.7% |
| CCN1C[C@]2(OC(=O)c3ccccc3NC(=O)S(=O)(=O)c3cccnc3Cl)CC[C@H](OC)[C@]34C1[C@@H](C[C@H]23)[C@@]1(O)C[C@H](OC)[C@H]2C[C@@H]4[C@]1(O)[C@H]2OC | 106% | 56.5% |
| CCN1C[C@]2(OC(=O)c3ccccc3NC(=O)C3CCCC3)CC[C@H](OC)[C@]34C1[C@@H](C[C@H]23)[C@@]1(O)C[C@H](OC)[C@H]2C[C@@H]4[C@]1(O)[C@H]2OC | 107% | 37.9% |
| CCN1C[C@]2(OC(=O)c3ccccc3NC(=O)S(=O)(=O)c3ccc(OC)cc3OC)CC[C@H](OC)[C@]34C1[C@@H](C[C@H]23)[C@@]1(O)C[C@H](OC)[C@H]2C[C@@H]4[C@]1(O)[C@H]2OC | 99.7% | 20.9% |

Source: ChEMBL document CHEMBL6078668, “Synthesis and biological evaluation of lappaconitine analogues as potential anti-neuroinflammatory agents by side chain modification and scaffold hopping strategy” (Bioorg Med Chem, 2025)
